In patent US8592455B2 (priority 2008, dated 2013):
Like-named read-outs stand apart in the source and are kept apart here.

Columns and labels:
Pim1 kinase [1] = biological target: T1, Pim1 kinase (Homo sapiens (Human), UniProt P11309); test: biochemical
Pim1 kinase [2] = biological target: T1, Pim1 kinase; details: read-out: Pim1 IC50
Pim3 kinase = Pim3 kinase (Homo sapiens (Human), UniProt Q86V86); details: read-out: Pim3 IC50

T1 sequence (P11309 whole entry): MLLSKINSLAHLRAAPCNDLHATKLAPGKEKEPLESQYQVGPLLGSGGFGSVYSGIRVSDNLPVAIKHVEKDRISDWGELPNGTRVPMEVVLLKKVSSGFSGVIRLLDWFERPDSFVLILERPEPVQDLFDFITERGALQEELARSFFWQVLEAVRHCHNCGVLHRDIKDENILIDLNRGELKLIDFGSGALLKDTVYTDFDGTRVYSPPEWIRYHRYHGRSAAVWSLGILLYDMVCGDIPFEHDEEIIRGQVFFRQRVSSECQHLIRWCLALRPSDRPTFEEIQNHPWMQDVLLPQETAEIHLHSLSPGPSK

SMILES	IC50 (Pim1 kinase [1])	IC50 (Pim1 kinase [2])	IC50 (Pim3 kinase)
Nc1ccc(-c2c(F)cccc2F)nc1C(=O)Nc1cnccc1[C@@H]1CC[C@H](O)[C@H](N)C1 (stereo in doubt) [Example 102, 3-amino-N-(4-(3-amino-4-hydroxycyclohexyl)pyridin-3-yl)-6-(2,6-difluorophenyl)picolinamide]	1 nM		
Cc1ccc(F)c(-c2cccc(C(=O)Nc3cnccc3[C@H]3C[C@@H](N)[C@@H](O)[C@@H](C)C3)n2)c1 [Example 74, N-(4-((1R,3R,4S,5S)-3-amino-4-hydroxy-5-methylcyclohexyl)pyridin-3-yl)-6-(2-fluoro-5-methylphenyl)picolinamide]		1 nM	4 nM
C[C@H]1C[C@@H](c2ccncc2NC(=O)c2cccc(-c3c(F)cccc3F)n2)C[C@@H](N)[C@H]1O [Example 76, N-(4-((1R,3R,4S,5S)-3-amino-4-hydroxy-5-methylcyclohexyl)pyridin-3-yl)-6-(2,6-difluorophenyl)picolinamide]		1 nM	2 nM
N[C@H]1CCC[C@@H](c2ccncc2NC(=O)c2ccc(F)c(-c3cccc(F)c3F)n2)C1 [Example 79, N-(4-((1R,3S)-3-aminocyclohexyl)pyridin-3-yl)-6-(2,3-difluorophenyl)-5-fluoropicolinamide]		2 nM	3 nM
N[C@H]1CCC[C@@H](c2ccncc2NC(=O)c2nc(-c3c(F)cccc3F)ccc2F)C1 [Example 80, N-(4-((1R,3S)-3-aminocyclohexyl)pyridin-3-yl)-6-(2,6-difluorophenyl)-3-fluoropicolinamide]		6 nM	7 nM
N[C@H]1CCC[C@@H](c2ccncc2NC(=O)c2ccc(F)c(-c3ccc(F)cc3F)n2)C1 [Example 82, N-(4-((1R,3S)-3-aminocyclohexyl)pyridin-3-yl)-6-(2,4-difluorophenyl)-5-fluoropicolinamide]		3 nM	9 nM
N[C@@H]1C[C@H](c2ccncc2NC(=O)c2cccc(-c3ccccc3F)n2)CC[C@@H]1O [Example 83, N-(4-((1R,3R,4S)-3-amino-4-hydroxycyclohexyl)pyridin-3-yl)-6-(2-fluorophenyl)picolinamide]		4 nM	5 nM
Nc1ccc(-c2c(F)cccc2F)nc1C(=O)Nc1cnccc1C1=CC(N)C(O)CC1 (stereo not drawn) [Example 92, 3-amino-N-(4-(trans)-3-amino-4-hydroxycyclohex-1-enyl)pyridin-3-yl)-6-(2,6-difluorophenyl)picolinamide]		2 nM	5 nM
Nc1ccc(-c2c(F)cccc2F)nc1C(=O)Nc1cnccc1C1=C[C@@H](N)[C@@H](O)CC1 [Example 93]		1 nM	5 nM
C[C@@H]1CN(c2ccncc2NC(=O)c2nc(-c3c(F)cccc3F)ccc2N)C[C@@H](N)[C@H]1O [Example 103, 3-amino-N-(4-((3R,4S,5R)-3-amino-4-hydroxy-5-methylpiperidin-1-yl)pyridin-3-yl)-6-(2,6-difluorophenyl)picolinamide]		2 nM	4 nM
Cc1ccc(F)c(-c2cccc(C(=O)Nc3cnccc3[C@H]3C[C@@H](N)C[C@@H](C(F)(F)F)C3)n2)c1 [Example 108, N-(4-((1R,3R,5S)-3-amino-5-(trifluoromethyl)cyclohexyl)pyridin-3-yl)-6-(2-fluoro-5-methylphenyl)picolinamide]		1 nM	3 nM
N[C@@H]1C[C@H](c2ccncc2NC(=O)c2ccc(F)c(C3CCCCC3)n2)C[C@H](C(F)(F)F)C1 [Example 111, N-(4-((1R,3R,5S)-3-amino-5-(trifluoromethyl)cyclohexyl)pyridin-3-yl)-6-cyclohexyl-5-fluoropicolinamide]		2 nM	11 nM
C[C@H]1CN(c2ccncc2NC(=O)c2ccc(F)c(-c3ccccc3F)n2)C[C@@H](O)[C@@H]1O [Example 114, N-(4-((3R,4R,5S)-3,4-dihydroxy-5-methylpiperidin-1-yl)pyridin-3-yl)-5-fluoro-6-(2-fluorophenyl)picolinamide]		1 nM	1 nM
C[C@H]1CN(c2ccncc2NC(=O)c2cccc(-c3c(F)cccc3F)n2)C[C@@H](O)[C@@H]1O [Example 115, 6-(2,6-difluorophenyl)-N-(4-((3R,4R,5S)-3,4-dihydroxy-5-methylpiperidin-1-yl)pyridin-3-yl)picolinamide]		1 nM	1 nM
C[C@H]1CN(c2ccncc2NC(=O)c2ccc(F)c(-c3cccnc3)n2)C[C@@H](N)[C@@H]1O [Example 118, N-(4-((3R,4R,5S)-3-amino-4-hydroxy-5-methylpiperidin-1-yl)pyridin-3-yl)-3-fluoro-2,3′-bipyridine-6-carboxamide]		4 nM	9 nM
C[C@H]1CN(c2ccncc2NC(=O)c2ccc(F)c(-c3ccncc3F)n2)C[C@@H](N)[C@@H]1O [Example 119, N-(4-((3R,4R,5S)-3-amino-4-hydroxy-5-methylpiperidin-1-yl)pyridin-3-yl)-3,3′-difluoro-2,4′-bipyridine-6-carboxamide]		1 nM	2 nM
C[C@H]1CN(c2ccncc2NC(=O)c2ccc(F)c(-c3ccncc3)n2)C[C@@H](N)[C@@H]1O [Example 120, N-(4-((3R,4R,5S)-3-amino-4-hydroxy-5-methylpiperidin-1-yl)pyridin-3-yl)-3-fluoro-2,4′-bipyridine-6-carboxamide]		3 nM	7 nM
COc1cc(F)c(-c2nc(C(=O)Nc3cnccc3[C@H]3C[C@@H](N)CC(C)(C)C3)ccc2F)c(F)c1 [Example 123, N-(4-((1R,5R)-5-amino-3,3-dimethylcyclohexyl)pyridin-3-yl)-6-(2,6-difluoro-4-methoxyphenyl)-5-fluoropicolinamide]		1 nM	2 nM
N[C@H]1CCC[C@@H](c2ccncc2NC(=O)c2ccc(F)c(-c3c(F)ccc(O)c3F)n2)C1 [Example 124, N-(4-((1R,3S)-3-aminocyclohexyl)pyridin-3-yl)-6-(2,6-difluoro-3-hydroxyphenyl)-5-fluoropicolinamide]		1 nM	1 nM
C[C@H]1C[C@@H](c2ccncc2NC(=O)c2ccc(F)c(-c3cccc(C(F)(F)F)c3F)n2)C[C@@H](N)[C@@H]1O [Example 127, N-(4-((1R,3R,4R,5S)-3-amino-4-hydroxy-5-methylcyclohexyl)pyridin-3-yl)-5-fluoro-6-(2-fluoro-3-(trifluoromethyl)phenyl)picolinamide]		11 nM	27 nM
C[C@@H]1C[C@H](N)C[C@H](c2ccncc2NC(=O)c2ccc(F)c(-c3c(F)ccc(F)c3F)n2)C1 [Example 129, N-(4-((1R,3S,5S)-3-amino-5-methylcyclohexyl)pyridin-3-yl)-5-fluoro-6-(2,3,6-trifluorophenyl)picolinamide]		1 nM	2 nM
Nc1cc(F)c(-c2ccncc2F)nc1C(=O)Nc1cnccc1[C@@H]1CCC[C@H](N)C1 [Example 136, 5-amino-N-(4-((1R,3S)-3-aminocyclohexyl)pyridin-3-yl)-3,3′-difluoro-2,4′-bipyridine-6-carboxamide]		2 nM	9 nM
CC1CC(c2ccncc2NC(=O)c2ccc(F)c(-c3c(F)cccc3F)n2)=CC(O)C1 (stereo not drawn) [Example 137, 6-(2,6-difluorophenyl)-5-fluoro-N-(4-(3-hydroxy-5-methylcyclohex-1-enyl)pyridin-3-yl)picolinamide]		1 nM	7 nM
